Source: patent publication US20250042875A1, “PESTICIDALLY ACTIVE PYRIDAZINONE COMPOUNDS” (SYNGENTA CROP PROTECTION AG, priority 2021, published 2025)

Experiments:
Type in all cases: in vivo
Diabrotica balteata = experiment: Activity against Diabrotica balteata (corn root worm), maize sprouts, L2 larvae; conditions: 96 h, application rate 200 ppm, 4 days after infestation, read-out: control in at least one of the two categories (mortality or growth inhibition)
Experimental: Example B2: Activity Against Diabrotica Balteata (Corn Root Worm)
Maize sprouts placed onto an agar layer in 24-well microtiter plates were treated with aqueous test solutions prepared from 10′000 ppm DMSO stock solutions by spraying. After drying, the plates were infested with L2 larvae (6 to 10 per well). The samples were assessed for mortality and growth inhibition in comparison to untreated samples 4 days after infestation.

Chilo suppressalis = experiment: Activity against Chilo suppressalis (striped rice stemborer), artificial diet, L2 larvae; conditions: 144 h, application rate 200 ppm, 6 days after infestation, read-out: control in at least one of the three categories (mortality, anti-feedant effect, or growth inhibition)
Outline: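 Artificial diet was treated with aqueous test solutions made from 10′000 ppm DMSO stocks, dried, then infested with 6-8 L2 larvae per well. Mortality, anti-feeding effect and growth inhibition were scored versus untreated samples 6 days after infestation; control means any category exceeds untreated.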

[1] = system: Frankliniella occidentalis; experiment: Activity against Frankliniella occidentalis (western flower thrips), feeding/contact activity; conditions: 168 h, application rate 200 ppm, 7 days after infestation
Experimental: Example B4: Activity Against Frankliniella occidentalis (Western Flower Thrips). Feeding/Contact Activity
Sunflower leaf discs were placed on agar in 24-well microtiter plates and sprayed with aqueous test solutions prepared from […] stock solutions. After drying the leaf discs were infested with a Frankliniella population of mixed ages. The samples were assessed for mortality 7 days after infestation.

Plutella xylostella = experiment: Activity against Plutella xylostella (diamond back moth), artificial diet, eggs; conditions: 192 h, application rate 200 ppm, 8 days after infestation, read-out: control in at least one of the two categories (mortality or growth inhibition)
Outline: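 Artificial diet was treated with aqueous dilutions of 10′000 ppm DMSO stocks, dried, then infested with Plutella eggs. Mortality and growth inhibition versus untreated samples were scored 8 days after infestation.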

Myzus persicae [2] = experiment: Activity against Myzus persicae (green peach aphid), feeding/contact activity; conditions: 144 h, application rate 200 ppm, 6 days after infestation
Experimental: Example B5: Activity Against Myzus persicae (Green Peach Aphid). Feeding/Contact Activity
Sunflower leaf discs were placed onto agar in a 24-well microtiter plate and sprayed with aqueous test solutions prepared from 10′000 ppm DMSO stock solutions. After drying, the leaf discs were infested with an aphid population of mixed ages. The samples were assessed for mortality 6 days after infestation.

Spodoptera littoralis = experiment: Activity against Spodoptera littoralis (Egyptian cotton leaf worm), cotton leaf discs, L1 larvae; conditions: foliar, 72 h, application rate 200 ppm, 3 days after infestation, read-out: control in at least one of the three categories (mortality, anti-feedant effect, or growth inhibition)
Outline: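 Cotton leaf discs on agar sprayed with aqueous test solutions made from 10′000 ppm DMSO stocks, then infested with five L1 larvae once dry. Mortality, anti-feeding and growth inhibition scored versus untreated samples 3 days after infestation; control counted when any category exceeds untreated.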

Euschistus heros = experiment: Activity against Euschistus heros (neotropical brown stink bug), soybean leaves, N2 nymphs; conditions: 120 h, application rate 200 ppm, 5 days after infestation, read-out: effect in at least one of the two categories (mortality or growth inhibition)
Experimental: Example B3: Activity Against Euschistus heros (Neotropical Brown Stink Bug)
Soybean leaves on agar in 24-well microtiter plates were sprayed with aqueous test solutions prepared from 10′000 ppm DMSO stock solutions. After drying the leaves were infested with N2 nymphs. The samples were assessed for mortality and growth inhibition in comparison to untreated samples 5 days after infestation.

Myzus persicae [3] = experiment: Activity against Myzus persicae (green peach aphid), intrinsic activity; conditions: 120 h, test rate 12 ppm, 5 days after infestation
Outline: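 Compounds diluted from 10′000 ppm DMSO stocks were mixed with sucrose solution under a stretched Parafilm membrane. Aphid-infested pea seedlings were set on the membrane and the plate was inverted so the aphids fed through it. Mortality was scored 5 days after infestation.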

Myzus persicae [4] = experiment: Activity against Myzus persicae (green peach aphid), systemic activity; conditions: 144 h, test rate 24 ppm, 6 days after placing seedlings into test solutions
Experimental: Example B9: Activity Against Myzus persicae (Green Peach Aphid). Systemic Activity
Roots of pea seedlings infested with an aphid population of mixed ages were placed directly into aqueous test solutions prepared from 10′000 DMSO stock solutions. The samples were assessed for mortality 6 days after placing seedlings into test solutions.

Tetranychus urticae = experiment: Activity against Tetranychus urticae (two-spotted spider mite), feeding/contact activity; conditions: 192 h
Experimental: Example B10: Activity Against Tetranychus urticae (Two-Spotted Spider Mite). Feeding/Contact Activity
Bean leaf discs on agar in 24-well microtiter plates were sprayed with aqueous test solutions prepared from 10′000 ppm DMSO stock solutions. After drying the leaf discs were infested with a mite population of mixed ages. The samples were assessed for mortality on mixed population (mobile stages) 8 days after infestation.

C[C@H](NC(=O)c1cc(C(F)(F)F)cc(C(F)(F)F)c1)c1ncnn1C1=NN(C)C(=O)CC1 [P2, N-[(1S)-1-[2-(1-methyl-6-oxo-4,5-dihydropyridazin-3-yl)-1,2,4-triazol-3-yl]ethyl]-3,5-bis(trifluoromethyl)benzamide]
≥ 80%: percent control (mortality or growth inhibition) at 200 ppm (Diabrotica balteata) | percent control (mortality, anti-feedant effect or growth inhibition) at 200 ppm (Chilo suppressalis) | mortality at 200 ppm [1] | percent control (mortality or growth inhibition) at 200 ppm (Plutella xylostella) | mortality at 200 ppm (Myzus persicae [2]) | percent control (mortality, anti-feedant effect or growth inhibition) at 200 ppm (Spodoptera littoralis) | percent effect (mortality or growth inhibition) at 200 ppm (Euschistus heros)

C[C@@H](c1ncnn1-c1ccc(=O)n(C)n1)N(C)C(=O)c1cc(C(F)(F)F)cc(C(F)(F)F)c1 [P5, N-methyl-N-[(1S)-1-[2-(1-methyl-6-oxo-pyridazin-3-yl)-1,2,4-triazol-3-yl]ethyl]-3,5-bis(trifluoromethyl)benzamide]
≥ 80%: percent control (mortality or growth inhibition) at 200 ppm (Diabrotica balteata) | percent control (mortality, anti-feedant effect or growth inhibition) at 200 ppm (Chilo suppressalis) | mortality at 12 ppm (Myzus persicae [3]) | percent control (mortality or growth inhibition) at 200 ppm (Plutella xylostella) | mortality at 24 ppm (Myzus persicae [4]) | mortality at 200 ppm (Myzus persicae [2]) | percent control (mortality, anti-feedant effect or growth inhibition) at 200 ppm (Spodoptera littoralis) | percent effect (mortality or growth inhibition) at 200 ppm (Euschistus heros)

CC(c1nccnc1-c1ccc(=O)n(C)n1)N(C)C(=O)c1cc(C(F)(F)F)cc(C(F)(F)F)c1 (stereo not drawn) [P6, N-methyl-N-[1-[3-(1-methyl-6-oxo-pyridazin-3-yl)pyrazin-2-yl]ethyl]-3,5-bis(trifluoromethyl)benzamide]
≥ 80%: percent control (mortality or growth inhibition) at 200 ppm (Diabrotica balteata) | percent control (mortality, anti-feedant effect or growth inhibition) at 200 ppm (Chilo suppressalis) | mortality at 12 ppm (Myzus persicae [3]) | percent control (mortality or growth inhibition) at 200 ppm (Plutella xylostella) | mortality at 24 ppm (Myzus persicae [4]) | mortality at 200 ppm (Myzus persicae [2]) | percent control (mortality, anti-feedant effect or growth inhibition) at 200 ppm (Spodoptera littoralis)

C[C@H](NC(=O)c1cc(Cl)cc(S(C)(=O)=O)c1)c1ncnn1-c1ccc(=O)n(C)n1 [P9, 3-chloro-N-[(1S)-1-[2-(1-methyl-6-oxo-pyridazin-3-yl)-1,2,4-triazol-3-yl]ethyl]-5-methylsulfonyl-benzamide]
≥ 80%: mortality at 12 ppm (Myzus persicae [3]) | mortality at 200 ppm [1] | mortality at 200 ppm (Myzus persicae [2]) | percent effect (mortality or growth inhibition) at 200 ppm (Euschistus heros)

C[C@@H](c1ncnn1-c1ccc(=O)n(C)n1)N(C)C(=O)c1cc(Cl)cc(S(=O)(=O)C(F)(F)F)c1 [P18, 3-chloro-N-methyl-N-[(1S)-1-[2-(1-methyl-6-oxo-pyridazin-3-yl)-1,2,4-triazol-3-yl]ethyl]-5-(trifluoromethylsulfonyl) benzamide]
≥ 80%: percent control (mortality or growth inhibition) at 200 ppm (Diabrotica balteata) | percent control (mortality, anti-feedant effect or growth inhibition) at 200 ppm (Chilo suppressalis) | mortality at 12 ppm (Myzus persicae [3]) | percent control (mortality or growth inhibition) at 200 ppm (Plutella xylostella) | mortality at 24 ppm (Myzus persicae [4]) | mortality at 200 ppm (Myzus persicae [2]) | percent control (mortality, anti-feedant effect or growth inhibition) at 200 ppm (Spodoptera littoralis) | percent effect (mortality or growth inhibition) at 200 ppm (Euschistus heros)

C[C@H](NC(=O)c1cc(Cl)cc(C(F)(F)F)c1)c1ncnn1C1=NN(C)C(=O)CC1 [P19, 3-chloro-N-[(1S)-1-[2-(1-methyl-6-oxo-4,5-dihydropyridazin-3-yl)-1,2,4-triazol-3-yl]ethyl]-5-(trifluoromethyl)benzamide]
≥ 80%: percent control (mortality or growth inhibition) at 200 ppm (Diabrotica balteata) | percent control (mortality, anti-feedant effect or growth inhibition) at 200 ppm (Chilo suppressalis) | mortality at 12 ppm (Myzus persicae [3]) | mortality at 200 ppm [1] | percent control (mortality or growth inhibition) at 200 ppm (Plutella xylostella) | mortality at 200 ppm (Tetranychus urticae) | percent control (mortality, anti-feedant effect or growth inhibition) at 200 ppm (Spodoptera littoralis) | percent effect (mortality or growth inhibition) at 200 ppm (Euschistus heros)
